From patent US11013710B2, “Synergistic compositions of bioactive agents for optimizing cellular health” (CELAGENEX RESEARCH (INDIA) PVT. LTD., priority 2018, dated 2021) come the findings set out here.

One assay deals with HepG2 cells. Nature of the assay: DNA fragmentation (DNA ladder assay) in HepG2 cells. The assay is classed as cell-based, Human. As for the experimental part:
FIG. 3 depicts DNA ladder assay of test substances on HepG2 cell line; L=100 bp Ladder, Lane 1=AAPH (1 mM), Lane 2=cell control, Lane 3=G3 (250 μg/ml), Lane 4=G4(250 μg/ml), Lane 5=G5 (5:125-250 μg/ml), Lane 6=G3+AAPH, Lane 7=G4+AAPH, Lane 8=G5+AAPH
HepG2 cells (3×10^6/ml) were seeded into 60 mm petri dishes and incubated at 37° C. with 5% CO2 atmosphere for 24 h. The cells were washed with medium and were treated with extract, standard substance and incubated at 37° C., 5% CO2 for 24 hrs. At the incubation time ended, the chromosomal DNA of cancer cells was prepared with G Biosciences, USA apoptotic DNA ladder kit. Total genomic DNA was extracted and resolved on a 1% agarose gel. Apoptotic DNA fragmentation was visualized by ethidium bromide staining under UV transilluminator and photographed. (FIG. 3)

Assay [1] deals with carrageenan induced rat paw edema. Nature of the assay: Carrageenan induced rat paw edema model (acute anti-inflammatory activity). It is filed as in vivo. The conditions noted are these: for % inhibition of paw edema at 6th hr.: pretreated 1 hr before, L-EGT 0.512 mg/kg, NMN chloride 12.33 mg/kg, combination 0.512+12.33 mg/kg bw, vs positive control; for paw edema compared with Positive control group (G2): result in words. As for the experimental part:
In study thirty (30) rats, were divided into total […] groups. […] G3-G4 groups are referred as test substances. Acute anti inflammatory activity was measured using carrageenan induced rat paw edema model. Acute inflammation was induced by the sub planter administration of 0.1 ml of 1% carrageenan (0.9% NaCl solution) in the right hind paw of the rats. Group 1 was treated with normal saline. Group 2 positive control was treated with normal saline (with paw edema induction). Group 3, Group 4 and Group 5 were treated with test substance (G1—0.512 mg/kg, G2—12.33 mg/kg and G3-0.512 mg/kg+12.33 mg/kg bw) respectively. Excluding control group, all groups were pretreated 1 hr before eliciting paw edema. […] The perimeter of paw was measured by using vernier calipers. After the completions of the paw volume measurement animals were anesthetized and blood was collected for biochemical parameter analysis. The anti-inflammatory activity was calculated by following formula % inhibition of edema=((T−T0)/T)×100 T: Thickness of paw in positive control group T0: Thickness of paw edema in the test compound treated groups. The values were expressed in Mean±SEM. The significance of in vivo data was analyzed by One way anova followed by Dunnet test. P<0.05 was considered as statistically significant

In another assay the test system is IL-6. Nature of the assay: Serum IL-6 levels in carrageenan paw edema rats. The assay is classed as in vivo, Rat. The conditions noted are these: for IL-6: rat serum after paw volume measurement, Mean±SEM; for Serum interleukin-6 compared with positive control (G2) / Percentage inhibition over control (serum IL-6): rat serum; for Serum interleukin-6 compared with positive control (G2): result in words; for Percentage inhibition over control (serum IL-6): vs positive control. On the procedure: (§1) Acute anti inflammatory activity was measured using carrageenan induced rat paw edema model. Acute inflammation was induced by the sub planter administration of 0.1 ml of 1% carrageenan (0.9% NaCl solution) in the right hind paw of the rats. Group 1 was treated with normal saline. Group 2 positive control was treated with normal saline (with paw edema induction). Group 3, Group 4 and Group 5 were treated with test substance (G1—0.512 mg/kg, G2—12.33 mg/kg and G3-0.512 mg/kg+12.33 mg/kg bw) respectively. Excluding control group, all groups were pretreated 1 hr before eliciting paw edema. The linear paw circumference was measured at Time intervals: 0, 30, 60, 120, 180 and 240 mins. The perimeter of paw was measured by using vernier calipers. After the completions of the paw volume measurement animals were anesthetized and blood was collected for biochemical parameter analysis. The values were expressed in Mean±SEM. The significance of in vivo data was analyzed by One way anova followed by Dunnet test. P<0.05 was considered as statistically significant

A further assay concerns TNF-Alpha. Briefly: Serum TNF-Alpha levels in carrageenan paw edema rats. The assay is classed as in vivo, Rat. Conditions: for TNF-Alpha: rat serum after paw volume measurement, Mean±SEM; for Serum TNF-Alpha compared with positive control (G2) / Percentage inhibition over control (serum TNF-Alpha): rat serum; for Serum TNF-Alpha compared with positive control (G2): result in words; for Percentage inhibition over control (serum TNF-Alpha): vs positive control. As for the experimental part: as §1
In general terms: The carrageenan paw model is a standard test of acute inflammation.

The next assay has as its system HepG2 cell line. Briefly: In vitro cytotoxicity (MTT) against HepG2 cell line. It is filed as cell-based, Human. Conditions: 72 h. As for the experimental part:
In-vitro cytotoxicity of the nutrients, G3, G4 and G5 were tested against HepG2 cell line. Nutrients were taken at concentrations ranging from 1000 μg/ml to 62.5 μg/ml to determine the percentage growth inhibition of individual substance on HepG2 cell line. The samples G3 and G4 produced a CTC50 value of above 1000 μg/ml. […] [Journal of Immunological Methods, 1986; 89:271-277].
The in vitro cytotoxicity was performed for samples G3, G4 and G5 on HepG2 to find toxic concentration and to determine the apoptotic activity of G3, G4 and G5.
For cytotoxicity studies, 10 mg of test substance was separately dissolved and volume was made up with MEM supplemented with 2% inactivated FBS to obtain a stock solution of 1 mg/ml concentration and sterilized by 0.22μ syringe filtration. Serial two fold dilutions were prepared from this for carrying out cytotoxic studies.
HepG2 (Human Hepatocyte) cell line was procured from National Centre for Cell Sciences (NCCS), Pune, India. Stock cells were cultured in MEM supplemented with 10% inactivated Fetal Bovine Serum (FBS), penicillin (100 IU/ml), streptomycin (100 μg/ml) and amphotericin B (5 μg/ml) in an humidified atmosphere of 5% CO2 at […] until confluent. The cells were dissociated with TPVG solution (0.2% trypsin, 0.02% EDTA, 0.05% glucose in PBS). The stock cultures were grown in 25 cm^2 culture flasks and all experiments were carried out in 96 microtitre plates (Tarsons India Pvt. Ltd., Kolkata, India).
The monolayer cell culture was trypsinized and the cell count was adjusted to 100,000 cells/ml using DMEM-HG containing 10% FBS. To each well of the 96 well microtitre plate, 0.1 ml of the diluted cell suspension was added. After 24 h, when a partial monolayer was formed, the supernatant was flicked off, washed the monolayer once with medium and 100 μl of different test concentrations of test substances were added on to the partial monolayer in microtitre plates. The plates were then incubated at 37° C. for 3 days in 5% CO2 atmosphere, and microscopic examination was carried out and observations were noted every 24 h interval. After 72 h, the substance solutions in the wells were discarded and 50 μl of MTT in PBS was added to each well. The plates were gently shaken and incubated for 3 h at 37° C. in 5% CO2 atmosphere. The supernatant was removed and 100 μl of propanol was added and the plates were gently shaken to solubilize the formed formazan. The absorbance was measured using a microplate reader at a wavelength of 540 nm. The percentage growth inhibition was calculated using the standard formula and concentration of test substance needed to inhibit cell growth by 50% (CTC50) values is generated from the dose-response curves for each cell line.
For cytotoxicity studies, 10 mg of test substance powder was separately dissolved and volume was made up with DMEM supplemented with 2% inactivated FBS to obtain a stock solution of 10 mg/ml concentration and sterilized by 0.22μ syringe filtration. Serial two fold dilutions were prepared from this for carrying out cytotoxic studies.
HepG2 (Human Hepatocyte) cell line was procured from National Centre for Cell Sciences (NCCS), Pune, India. Stock cells were cultured in DMEM supplemented with 10% inactivated Fetal Bovine Serum (FBS), penicillin (100 IU/ml), streptomycin (100 μg/ml) and amphotericin B (5 μg/ml) in an humidified atmosphere of 5% CO2 at 37° C. until confluent. The cells were dissociated with TPVG solution (0.2% trypsin, 0.02% EDTA, 0.05% glucose in PBS). The stock cultures were grown in 25 cm2 culture flasks and all experiments were carried out in 96 microtitre plates (Tarsons India Pvt. Ltd., Kolkata, India).
The monolayer cell culture was trypsinized and the cell count was adjusted to 100,000 cells/ml using medium containing 10% FBS. To each well of the 96 well microtitre plate, 0.1 ml of the diluted cell suspension was added. […]

The subject of another assay is Nrf2. Briefly: In vitro gene expression of Nrf2 (RT-PCR) in HepG2. It is filed as cell-based, Human. The conditions noted are these: HepG2, 250 μg/ml; cell control 1.00. On the procedure:
Nrf2 were estimated for the test substance by gene expression method, where the level of expression of Nrf2 expression on Human Hepatocytes (HepG2) was determined with respect to untreated HepG2 cells. The HepG2 cells treated with drug were subjected to cell lysis by treating with Tri-extract reagent. Chloroform was added, to isolate the total RNA from the sample and subjected for centrifugation. […] After the incubation followed by centrifugation, appropriate volume of ethanol was added to resuspend the pellet. After incubation and centrifugation, the pellet was air dried and appropriate volume of TAE buffer was added. […] The cDNA thus synthesized was taken up for Polymerase chain reaction (PCR) for the amplification of Nrf2 and Glyceraldehyde 3-phosphate dehydrogenase GAPDH (internal control). The mRNA expression levels of Nrf2 were determined using semi-quantitative reverse transcriptase-polymerase chain reaction (RT-PCR). 50 μl of the reaction mixture was subjected to PCR for amplification of Nrf2. cDNAs using specifically designed primers procured from Eurofins, India and as an internal control GAPDH (House keeping gene) was co-amplified with each reaction. Nrf2: 95° C. for 5 min followed by 35 cycles of denaturation at 95° C. for 30 seconds, annealing Tm for 30 seconds and extension at 72° C. for 45 seconds. This was followed by final extension at 72° C. for 10 min.

For the compound `CC(C)(N=NC(C)(C)C(=N)N)C(=N)N.Cl.Cl` [AAPH, 2,2′-azobis(2-amidinopropane)dihydrochloride, reference compound], the DNA fragmentation entry with HepG2 cells (HepG2, AAPH (1 mM)) is “showed a smear in the gel indicating the DNA fragmentation”.
For `C[N+](C)(C)[C@@H](Cc1c[nH]c(=S)[nH]1)C(=O)[O-]` [L-Ergothioneine], in assay [1], the “% inhibition of paw edema at 6th hr.” value is on record as 35.08% and the “paw edema compared with Positive control group (G2)” value is given as “significant decreases paw edema”. In the assay on IL-6, the “IL-6” value is 85.25 ± 0.30 pg/mL, the “Serum interleukin-6 compared with positive control (G2)” value is reported as “significantly decreased” and the “Percentage inhibition over control (serum IL-6)” value amounted to 15.74%. Also, in the assay with TNF-Alpha, the “TNF-Alpha” value is 201.5 ± 1.96 pg/mL, the “Serum TNF-Alpha compared with positive control (G2)” value is listed as “significantly decreased” and the “Percentage inhibition over control (serum TNF-Alpha)” value amounted to 13.21%. At 62.5 µg/mL the inhibition in the assay with HepG2 cell line (Homo sapiens, Test Conc. 62.5 μg/ml) was 6.62 ± 0.88%. In the assay on HepG2 cell line (Homo sapiens, Test Conc. 125 μg/ml), 125 µg/mL produced 11 ± 1.31% inhibition. The inhibition (in general, the relative decrease from the control value, in per cent) at 250 µg/mL in the assay on HepG2 cell line (Homo sapiens, Test Conc. 250 μg/ml) stood at 19 ± 1.05%. Testing at 1000 µg/mL in the assay with HepG2 cell line (Homo sapiens, Test Conc. 1000 μg/ml) gave an inhibition of 30 ± 1.52%. The IC50 with HepG2 cell line (Homo sapiens, concentration needed to inhibit cell growth by 50%, read-out: CTC 50 in μg/ml) is above 1000 µg/mL. Further, the DNA fragmentation entry with HepG2 cells (HepG2, 250 μg/ml, 24 hrs) was “did not exhibit any fragmentation of DNA”. Besides, the “Regulation in Terms of Folds (gene expression level of Nrf2 normalized to GAPDH)” value with Nrf2 is reported as above 1.0 Folds.
On to Nicotinamide mononucleotide chloride, for which, in assay [1], the “% inhibition of paw edema at 6th hr.” value was 40.80% and the “paw edema compared with Positive control group (G2)” value is recorded as “significant decreases paw edema”. Besides, in the assay with IL-6, the “IL-6” value is 79.55 ± 0.95 pg/mL, the “Serum interleukin-6 compared with positive control (G2)” value is on record as “significantly decreased” and the “Percentage inhibition over control (serum IL-6)” value was 21.34%. In the assay with TNF-Alpha, the “TNF-Alpha” value stood at 185.2 ± 4.37 pg/mL, the “Serum TNF-Alpha compared with positive control (G2)” value is listed as “significantly decreased” and the “Percentage inhibition over control (serum TNF-Alpha)” value came out at 20.18%. Further, in the assay on HepG2 cell line (Test Conc. 62.5 μg/ml), the % Inhibition (commonly the change of the read-out against control, counted positive when it falls) stood at 5.26 ± 1.5%. The “% Inhibition” value in the assay with HepG2 cell line (Test Conc. 125 μg/ml) was found to be 11.15 ± 3.32%. Also, the “% Inhibition” value in the assay with HepG2 cell line (Test Conc. 250 μg/ml) came to 17.56 ± 1.16%. Besides, in the assay on HepG2 cell line (Test Conc. 500 μg/ml), the “% Inhibition” value was determined as 24.19 ± 1.59%. The “% Inhibition” value in the assay on HepG2 cell line (Test Conc. 1000 μg/ml) was determined as 31.49 ± 0.79%. Besides, the DNA fragmentation entry in the assay on HepG2 cells (HepG2, 250 μg/ml, 24 hrs) is given as “did not exhibit any fragmentation of DNA”. In addition, the “Regulation in Terms of Folds (gene expression level of Nrf2 normalized to GAPDH)” value in the assay with Nrf2 is recorded as above 1.0 Folds.
